Test system: Human MCF-7 breast carcinoma cells
Assay: In vivo growth assay, MCF-7 xenograft (Study A and Study B)
Parameters: species or system nude mice
Conditions: for TGI: Day 15
Procedure: Once-weekly treatments were administered for three weeks by tail vein injection except in cases where poor drug solubility or tail necrosis necessitated intraperitoneal injections. […] Example 93 was evaluated in Study B at 55.45 mg/kg, 110.9 mg/kg and 221.8 mg/kg. Antitumor activity was assessed by tumor growth delay (“TGD”) defined as the difference in median time to endpoint tumor size in a treatment group compared to the control group, and by tumor growth inhibition (“TGI”) defined as the difference between median tumor volumes of the treatment and control groups on a study day providing a balance between measurable group responses and large group sizes. Toxicity was evaluated by body weight measurements and clinical observations.
Female nude mice (nu/nu, Harlan) were 10-11 weeks old and had body weight ranges of
The animals were fed ad libitum water (reverse osmosis, 1 ppm Cl) and NIH 31 Modified and Irradiated Lab Diet® consisting of 18.0% crude protein, 5.0% crude fat, and 5.0% crude fiber. The mice were housed on irradiated ALPHA-Dri® Bed-o′ Cobs® Laboratory Animal Bedding in static microisolators on a 12-hour light cycle at 21-22° C.
Human MCF-7 breast carcinoma cells were maintained in RPMI 1640 medium containing 100 units/mL penicillin G sodium, 100 μg/mL streptomycin sulfate, and 25 μg/mL gentamicin. The medium was supplemented with 10% heat-inactivated fetal bovine serum and 2 mM glutamine. Additional buffering was provided with 10 mM HEPES and 0.075% sodium bicarbonate. The tumor cells were cultured in tissue culture flasks in a humidified incubator at 37° C. in an atmosphere of 95% air and 5% CO2.
Three to seven days prior to cell injection, a pellet containing 17-β-estradiol (0.36 mg, 60-day release, Innovative Research of America) was implanted subcutaneously between the scapulae of each mouse.
The MCF-7 tumor cells used for implantation were harvested during log phase growth and resuspended in phosphate-buffered saline at 5×10^7 cells/mL. […] Tumors were monitored twice weekly and then daily as their volumes approached 80-120 mm^3. […] Thus, a separate study (“Study B”) was set up comprising six groups (n=10) of animals. In this study, 17 days elapsed between cell implantation and group assignment. […] Tumor size, in mm^3, was calculated from:
[formula] where w=width and l=length in mm of the MCF-7 tumor. Tumor weight may be estimated with the assumption that 1 mg is equivalent to 1 mm^3 of tumor volume.
Example 93 dosing solutions were prepared fresh in 0.1N acetic acid for each day of treatment.
Camptothecin (Lot No. 034K3648, Sigma) stock solutions were made from 60% DMA and 40% Tween 80 and stored at room temperature during the study. Dosing solutions were prepared fresh on each day of dosing by diluting the stocks 1:20 in saline.
The treatment plans are summarized in Table 3A for Study A and Table 3B for Study B.
All treatments and vehicles were given once-weekly for three doses (“qwk×3”). Group 1 mice received no gavage and no injections, and served as a control for tumor progression and estrogen toxicity. Group 2 animals received vehicle.
Each treatment dose was administered in a volume of 0.2 mL per 20 g of body weight, and was scaled to the body weight of the animal.
Median tumor growth curves of FIGS. 1-3 show median tumor volumes as a function of time. When an animal exited the study due to tumor size, the final tumor volume recorded for the animal was included with the data used to calculate the group median tumor volume at subsequent time points. Curves were truncated after 50% of animals in a group had exited the study.

Substance: [camptothecin-rvD-Asp-Suc-Tyr^1, Nle^17, 4Hyp^34]hNPY(1-36)-NH2 [Example 92]
- tumor growth inhibition (TGI) (Study A, Day 18): dose-related, significantly so at 110.6 and 221.2 mg/kg, and of potential therapeutic value at the higher dose level
- mean tumor volume (Study A, G 7: 55.3 mg/kg qwk x 3, D 1): 124.1 mm^3
- mean tumor volume (Study A, G 7: 55.3 mg/kg qwk x 3, D 4): 112.3 mm^3
- mean tumor volume (Study A, G 7: 55.3 mg/kg qwk x 3, D 7): 139.2 mm^3
- mean tumor volume (Study A, G 7: 55.3 mg/kg qwk x 3, D 11): 168.4 mm^3
- mean tumor volume (Study A, G 7: 55.3 mg/kg qwk x 3, D 14): 250.9 mm^3
- mean tumor volume (Study A, G 7: 55.3 mg/kg qwk x 3, D 18): 242.9 mm^3
- mean tumor volume (Study A, G 7: 55.3 mg/kg qwk x 3, D 21): 262.5 mm^3
- mean tumor volume (Study A, G 7: 55.3 mg/kg qwk x 3, D 25): 385.9 mm^3
- mean tumor volume (Study A, G 7: 55.3 mg/kg qwk x 3, D 28): 505.1 mm^3
- mean tumor volume (Study A, G 7: 55.3 mg/kg qwk x 3, D 32): 532.2 mm^3
- mean tumor volume (Study A, G 7: 55.3 mg/kg qwk x 3, D 35): 631 mm^3
- mean tumor volume (Study A, G 7: 55.3 mg/kg qwk x 3, D 39): 978 mm^3
- mean tumor volume (Study A, G 8: 110.6 mg/kg qwk x 3, D 1): 124.1 mm^3
- mean tumor volume (Study A, G 8: 110.6 mg/kg qwk x 3, D 4): 130.8 mm^3
- mean tumor volume (Study A, G 8: 110.6 mg/kg qwk x 3, D 7): 127.5 mm^3
- mean tumor volume (Study A, G 8: 110.6 mg/kg qwk x 3, D 11): 146 mm^3
- mean tumor volume (Study A, G 8: 110.6 mg/kg qwk x 3, D 14): 184.6 mm^3
- mean tumor volume (Study A, G 8: 110.6 mg/kg qwk x 3, D 18): 187.9 mm^3
- mean tumor volume (Study A, G 8: 110.6 mg/kg qwk x 3, D 21): 216.2 mm^3
- mean tumor volume (Study A, G 8: 110.6 mg/kg qwk x 3, D 25): 337.3 mm^3
- mean tumor volume (Study A, G 8: 110.6 mg/kg qwk x 3, D 28): 439.6 mm^3
- mean tumor volume (Study A, G 8: 110.6 mg/kg qwk x 3, D 32): 454.8 mm^3
- mean tumor volume (Study A, G 8: 110.6 mg/kg qwk x 3, D 35): 550.5 mm^3
- mean tumor volume (Study A, G 8: 110.6 mg/kg qwk x 3, D 39): 938 mm^3
- mean tumor volume (Study A, G 9: 221.2 mg/kg qwk x 3, D 1): 124.1 mm^3
- mean tumor volume (Study A, G 9: 221.2 mg/kg qwk x 3, D 4): 118.3 mm^3
- mean tumor volume (Study A, G 9: 221.2 mg/kg qwk x 3, D 7): 118.9 mm^3
- mean tumor volume (Study A, G 9: 221.2 mg/kg qwk x 3, D 11): 118.8 mm^3
- mean tumor volume (Study A, G 9: 221.2 mg/kg qwk x 3, D 14): 109.4 mm^3
- mean tumor volume (Study A, G 9: 221.2 mg/kg qwk x 3, D 18): 129.5 mm^3
- mean tumor volume (Study A, G 9: 221.2 mg/kg qwk x 3, D 21): 150.1 mm^3
- mean tumor volume (Study A, G 9: 221.2 mg/kg qwk x 3, D 25): 172.2 mm^3
- mean tumor volume (Study A, G 9: 221.2 mg/kg qwk x 3, D 28): 197.7 mm^3
- mean tumor volume (Study A, G 9: 221.2 mg/kg qwk x 3, D 32): 213.8 mm^3
- mean tumor volume (Study A, G 9: 221.2 mg/kg qwk x 3, D 35): 301.7 mm^3
- mean tumor volume (Study A, G 9: 221.2 mg/kg qwk x 3, D 39): 372 mm^3
- tumor regressions (Study A, highest dose level (222.6 or 221.2 mg/kg), TGD-evaluated sample): 3/5
- tumor growth delay (TGD) (Study A, three dose levels, qwk x 3): dose-related TGD, reaching statistical significance

Substance: [camptothecin-rvD-Asp-Suc-Tyr^1, Nle^17, A6c^31, 4Hyp^34]hNPY(1-36)-NH2 [Example 93]
- tumor growth delay (TGD) (Study B): TGD analysis did not distinguish responses to Example 93 from tumor growth in the untreated control
- TGI (Study B, 110.9 mg/kg): 71%
- TGI (Study B, 221.8 mg/kg): 77%
- mean tumor volume (Study B, G 4: 55.45 mg/kg qwk x 3, D 1): 112.9 mm^3
- mean tumor volume (Study B, G 4: 55.45 mg/kg qwk x 3, D 4): 206.3 mm^3
- mean tumor volume (Study B, G 4: 55.45 mg/kg qwk x 3, D 8): 227.6 mm^3
- mean tumor volume (Study B, G 4: 55.45 mg/kg qwk x 3, D 12): 236.1 mm^3
- mean tumor volume (Study B, G 4: 55.45 mg/kg qwk x 3, D 15): 323.1 mm^3
- mean tumor volume (Study B, G 4: 55.45 mg/kg qwk x 3, D 19): 348.4 mm^3
- mean tumor volume (Study B, G 4: 55.45 mg/kg qwk x 3, D 22): 343.3 mm^3
- mean tumor volume (Study B, G 4: 55.45 mg/kg qwk x 3, D 26): 366.9 mm^3
- mean tumor volume (Study B, G 4: 55.45 mg/kg qwk x 3, D 29): 426.8 mm^3
- mean tumor volume (Study B, G 4: 55.45 mg/kg qwk x 3, D 33): 524.5 mm^3
- mean tumor volume (Study B, G 4: 55.45 mg/kg qwk x 3, D 36): 621.9 mm^3
- mean tumor volume (Study B, G 4: 55.45 mg/kg qwk x 3, D 40): 452.8 mm^3
- mean tumor volume (Study B, G 5: 110.9 mg/kg qwk x 3, D 1): 112.8 mm^3
- mean tumor volume (Study B, G 5: 110.9 mg/kg qwk x 3, D 4): 217.3 mm^3
- mean tumor volume (Study B, G 5: 110.9 mg/kg qwk x 3, D 8): 213 mm^3
- mean tumor volume (Study B, G 5: 110.9 mg/kg qwk x 3, D 12): 186.6 mm^3
- mean tumor volume (Study B, G 5: 110.9 mg/kg qwk x 3, D 15): 242.5 mm^3
- mean tumor volume (Study B, G 5: 110.9 mg/kg qwk x 3, D 19): 212.6 mm^3
- mean tumor volume (Study B, G 5: 110.9 mg/kg qwk x 3, D 22): 207.7 mm^3
- mean tumor volume (Study B, G 5: 110.9 mg/kg qwk x 3, D 26): 225.5 mm^3
- mean tumor volume (Study B, G 5: 110.9 mg/kg qwk x 3, D 29): 308.7 mm^3
- mean tumor volume (Study B, G 5: 110.9 mg/kg qwk x 3, D 33): 112.3 mm^3
- mean tumor volume (Study B, G 5: 110.9 mg/kg qwk x 3, D 36): 141.1 mm^3
- mean tumor volume (Study B, G 5: 110.9 mg/kg qwk x 3, D 40): 229.5 mm^3
- mean tumor volume (Study B, G 6: 221.8 mg/kg qwk x 3, D 1): 112.7 mm^3
- mean tumor volume (Study B, G 6: 221.8 mg/kg qwk x 3, D 4): 197.9 mm^3
- mean tumor volume (Study B, G 6: 221.8 mg/kg qwk x 3, D 8): 170.3 mm^3
- mean tumor volume (Study B, G 6: 221.8 mg/kg qwk x 3, D 12): 108 mm^3
- mean tumor volume (Study B, G 6: 221.8 mg/kg qwk x 3, D 15): 122.8 mm^3
- mean tumor volume (Study B, G 6: 221.8 mg/kg qwk x 3, D 19): 66.6 mm^3
- mean tumor volume (Study B, G 6: 221.8 mg/kg qwk x 3, D 22): 66 mm^3
- mean tumor volume (Study B, G 6: 221.8 mg/kg qwk x 3, D 26): 80.4 mm^3
- mean tumor volume (Study B, G 6: 221.8 mg/kg qwk x 3, D 29): 90.1 mm^3
- mean tumor volume (Study B, G 6: 221.8 mg/kg qwk x 3, D 33): 109.6 mm^3
- mean tumor volume (Study B, G 6: 221.8 mg/kg qwk x 3, D 36): 123.8 mm^3
- mean tumor volume (Study B, G 6: 221.8 mg/kg qwk x 3, D 40): 233.2 mm^3
- tumor growth curves (Study B, all dose levels): clear reduction in tumor growth at all dose levels

— US8877715B2, “Cytotoxic conjugates having neuropeptide Y receptor binding compound” (priority 2009, dated 2014)
